The target of the test is T1, AR (Homo sapiens, UniProt P10275).
T1 construct: endogenous in cells; host or cells: VCaP cells
T1 sequence (P10275 1-920): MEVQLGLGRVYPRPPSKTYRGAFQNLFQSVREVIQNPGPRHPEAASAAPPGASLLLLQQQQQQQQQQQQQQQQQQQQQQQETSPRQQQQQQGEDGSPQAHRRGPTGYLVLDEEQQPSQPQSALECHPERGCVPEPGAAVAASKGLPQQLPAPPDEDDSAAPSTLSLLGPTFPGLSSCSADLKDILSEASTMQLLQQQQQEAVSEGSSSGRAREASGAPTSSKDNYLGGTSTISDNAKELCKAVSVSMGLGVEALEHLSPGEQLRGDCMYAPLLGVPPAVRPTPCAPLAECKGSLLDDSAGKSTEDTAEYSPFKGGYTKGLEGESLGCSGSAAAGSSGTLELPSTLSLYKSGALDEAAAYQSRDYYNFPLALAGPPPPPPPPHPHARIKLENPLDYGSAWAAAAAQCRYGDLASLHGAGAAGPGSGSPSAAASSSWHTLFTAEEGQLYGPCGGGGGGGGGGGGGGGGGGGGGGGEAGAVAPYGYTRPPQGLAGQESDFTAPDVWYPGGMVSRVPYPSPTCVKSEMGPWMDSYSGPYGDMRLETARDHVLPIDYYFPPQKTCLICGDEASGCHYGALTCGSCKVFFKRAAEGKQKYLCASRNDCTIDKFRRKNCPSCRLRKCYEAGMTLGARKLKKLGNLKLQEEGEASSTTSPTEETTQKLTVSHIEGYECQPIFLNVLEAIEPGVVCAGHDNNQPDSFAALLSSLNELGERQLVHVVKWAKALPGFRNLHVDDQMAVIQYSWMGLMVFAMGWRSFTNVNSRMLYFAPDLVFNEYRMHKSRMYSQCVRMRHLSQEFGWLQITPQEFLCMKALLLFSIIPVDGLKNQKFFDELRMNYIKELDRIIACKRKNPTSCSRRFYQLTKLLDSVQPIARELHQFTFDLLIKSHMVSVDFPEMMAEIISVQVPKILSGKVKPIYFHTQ
Kind of test: VCAP AR Degradation Assay. Format: cell-based. To be noted: for Y (AR degradation efficiency, % of DMSO control): class symbols *; for DC50: class symbols A-C, read-out: DC50. The method, boiled down: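 VCaP cells treated 24 h at 37 °C with a 10-point 1:3 series (top 5 μM final; 0.1% DMSO control). Lysate AR measured by sandwich ELISA, normalized to DMSO as percent of control; DC50, EC50 and lowest AR level (Y) from four-parameter logistic fit.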

As a reminder, the DC50 is the concentration at which degradation of the target reaches its halfway point.

Molecules are shown by their SMILES.

Consider `CCc1cc(N2C(=S)N(c3cnc(C#N)c(C(F)(F)F)c3)C(=O)C2(C)C)ccc1OCCN1CCN(CC(=O)Nc2cc(F)cc(NC3CCC(=O)NC3=O)c2)CC1` (stereo not shown) [Example 63, 2-(4-(2-(4-(3-(6-cyano-5-(trifluoromethyl)pyridin-3-yl)-5,5-dimethyl-4-oxo-2-thioxoimidazolidin-1-yl)-2-ethylphenoxy)ethyl)piperazin-1-yl)-N-(3-(2,6-dioxopiperidin-3-ylamino)-5-fluorophenyl)acetamide], for which the “Y (AR degradation efficiency, % of DMSO control)” value is recorded as “* (0<Y<=25%)” and the DC50 is less than 100 nM.
The matching figures for `CCc1cc(N2C(=S)N(c3cnc(C#N)c(C(F)(F)F)c3)C(=O)C2(C)C)ccc1OCCN1CCN(CC(=O)Nc2cc(NC3CCC(=O)NC3=O)ccc2F)CC1` (stereo not shown) [Example 64, 2-(4-(2-(4-(3-(6-cyano-5-(trifluoromethyl)pyridin-3-yl)-5,5-dimethyl-4-oxo-2-thioxoimidazolidin-1-yl)-2-ethylphenoxy)ethyl)piperazin-1-yl)-N-(5-(2,6-dioxopiperidin-3-ylamino)-2-fluorophenyl)acetamide]: “* (0<Y<=25%)” and less than 100 nM.
For `CC1(C)C(=O)N(c2ccc(C#N)c(C(F)(F)F)c2)C(=S)N1c1ccc(OCCN2CCN(CC(=O)Nc3cc(C#N)cc(NC4CCC(=O)NC4=O)c3)CC2)c(F)c1` (stereo not shown) [Example 65, 2-(4-(2-(4-(3-(4-cyano-3-(trifluoromethyl)phenyl)-5,5-dimethyl-4-oxo-2-thioxoimidazolidin-1-yl)-2-fluorophenoxy)ethyl)piperazin-1-yl)-N-(3-cyano-5-(2,6-dioxopiperidin-3-ylamino)phenyl)acetamide], the “Y (AR degradation efficiency, % of DMSO control)” value was “** (25%<Y<=35%)” and the DC50 lay within 100 to 500 nM.
Consider `CC1(C)C(=O)N(c2cnc(C#N)c(C(F)(F)F)c2)C(=S)N1c1ccc(OCCN2CCN(CC(=O)Nc3cc(NC4CCC(=O)NC4=O)ccc3F)CC2)c(CC(F)F)c1` (stereo not shown) [Example 66, 2-(4-(2-(4-(3-(6-cyano-5-(trifluoromethyl)pyridin-3-yl)-5,5-dimethyl-4-oxo-2-thioxoimidazolidin-1-yl)-2-(2,2-difluoroethyl)phenoxy)ethyl)piperazin-1-yl)-N-(5-(2,6-dioxopiperidin-3-ylamino)-2-fluorophenyl)acetamide], for which the “Y (AR degradation efficiency, % of DMSO control)” value is “* (0<Y<=25%)” and the DC50 was less than 100 nM.
For the compound `CC1(C)C(=O)N(c2cnc(C#N)c(C(F)(F)F)c2)C(=S)N1c1ccc(OCCN2CCN(CC(=O)Nc3cc(Cl)cc(NC4CCC(=O)NC4=O)c3)CC2)c(CC(F)F)c1` (stereo not shown) [Example 67, N-(3-chloro-5-(2,6-dioxopiperidin-3-ylamino)phenyl)-2-(4-(2-(4-(3-(6-cyano-5-(trifluoromethyl)pyridin-3-yl)-5,5-dimethyl-4-oxo-2-thioxoimidazolidin-1-yl)-2-(2,2-difluoroethyl)phenoxy)ethyl)piperazin-1-yl)acetamide], the “Y (AR degradation efficiency, % of DMSO control)” value is listed as “* (0<Y<=25%)” and the 50% degradation concentration (DC50) is less than 100 nM.
On to `CC1(C)C(=O)N(c2cnc(C#N)c(C(F)(F)F)c2)C(=S)N1c1ccc(OCCN2CCN(CC(=O)Nc3cc(F)cc(NC4CCC(=O)NC4=O)c3)CC2)c(CC(F)F)c1` (stereo not shown) [Example 68, 2-(4-(2-(4-(3-(6-cyano-5-(trifluoromethyl)pyridin-3-yl)-5,5-dimethyl-4-oxo-2-thioxoimidazolidin-1-yl)-2-(2,2-difluoroethyl)phenoxy)ethyl)piperazin-1-yl)-N-(3-(2,6-dioxopiperidin-3-ylamino)-5-fluorophenyl)acetamide], for which the “Y (AR degradation efficiency, % of DMSO control)” value was “* (0<Y<=25%)” and the DC50 was less than 100 nM.
Turning to `CCc1cc(N2C(=S)N(c3ccc(C#N)c(C(F)(F)F)c3)C(=O)C2(C)C)cnc1OCCN1CCN(CC(=O)Nc2cc(Cl)cc(NC3CCC(=O)NC3=O)c2)CC1` (stereo not shown) [Example 69, N-(3-chloro-5-(2,6-dioxopiperidin-3-ylamino)phenyl)-2-(4-(2-(5-(3-(4-cyano-3-(trifluoromethyl)phenyl)-5,5-dimethyl-4-oxo-2-thioxoimidazolidin-1-yl)-3-ethylpyridin-2-yloxy)ethyl)piperazin-1-yl)acetamide], the “Y (AR degradation efficiency, % of DMSO control)” value was “* (0<Y<=25%)” and the DC50 was less than 100 nM.
Turning to `CCc1cc(N2C(=S)N(c3ccc(C#N)c(C(F)(F)F)c3)C(=O)C2(C)C)ccc1OCCN1CCN(CC(=O)Nc2cc(NC3CCC(=O)NC3=O)cc(F)c2F)CC1` (stereo not shown) [Example 70, 2-(4-(2-(4-(3-(4-cyano-3-(trifluoromethyl)phenyl)-5,5-dimethyl-4-oxo-2-thioxoimidazolidin-1-yl)-2-ethylphenoxy)ethyl)piperazin-1-yl)-N-(5-(2,6-dioxopiperidin-3-ylamino)-2,3-difluorophenyl)acetamide], the “Y (AR degradation efficiency, % of DMSO control)” value is recorded as “* (0<Y<=25%)” and the DC50 is less than 100 nM.
The matching figures for `CC1(C)C(=O)N(c2cnc(C#N)c(C(F)(F)F)c2)C(=S)N1c1ccc(OCCN2CCN(CC(=O)Nc3cc(NC4CCC(=O)NC4=O)ccc3F)CC2)c(CCF)c1` (stereo not shown) [Example 71, 2-(4-(2-(4-(3-(6-cyano-5-(trifluoromethyl)pyridin-3-yl)-5,5-dimethyl-4-oxo-2-thioxoimidazolidin-1-yl)-2-(2-fluoroethyl)phenoxy)ethyl)piperazin-1-yl)-N-(5-(2,6-dioxopiperidin-3-ylamino)-2-fluorophenyl)acetamide]: “* (0<Y<=25%)” and less than 100 nM.
As for `CC1(C)C(=O)N(c2cnc(C#N)c(C(F)(F)F)c2)C(=S)N1c1ccc(OCCN2CCN(CC(=O)Nc3cc(Cl)cc(NC4CCC(=O)NC4=O)c3)CC2)c(CCF)c1` (stereo not shown) [Example 72, N-(3-chloro-5-(2,6-dioxopiperidin-3-ylamino)phenyl)-2-(4-(2-(4-(3-(6-cyano-5-(trifluoromethyl)pyridin-3-yl)-5,5-dimethyl-4-oxo-2-thioxoimidazolidin-1-yl)-2-(2-fluoroethyl)phenoxy)ethyl)piperazin-1-yl)acetamide], the “Y (AR degradation efficiency, % of DMSO control)” value is given as “* (0<Y<=25%)” and the DC50 was less than 100 nM.
The matching figures for `CCc1cc(N2C(=S)N(c3ccc(C#N)c(C(F)(F)F)c3)C(=O)C2(C)C)ccc1OCCN1CCN(CC(=O)Nc2cc(F)cc(NC3CCC(=O)NC3=O)c2)C(C)(C)C1` (stereo not shown) [Example 73, 2-(4-(2-(4-(3-(4-cyano-3-(trifluoromethyl)phenyl)-5,5-dimethyl-4-oxo-2-thioxoimidazolidin-1-yl)-2-ethylphenoxy)ethyl)-2,2-dimethylpiperazin-1-yl)-N-(3-(2,6-dioxopiperidin-3-ylamino)-5-fluorophenyl)acetamide]: “* (0<Y<=25%)” and less than 100 nM.
The matching figures for `CCc1cc(N2C(=S)N(c3cnc(C#N)c(C(F)(F)F)c3)C(=O)C2(C)C)ccc1OCCN1CCN(CC(=O)Nc2cc(Cl)cc(NC3CCC(=O)NC3=O)c2)[C@H](C)C1` (stereo partly drawn) [Example 74, N-(3-chloro-5-(2,6-dioxopiperidin-3-ylamino)phenyl)-2-((R)-4-(2-(4-(3-(6-cyano-5-(trifluoromethyl)pyridin-3-yl)-5,5-dimethyl-4-oxo-2-thioxoimidazolidin-1-yl)-2-ethylphenoxy)ethyl)-2-methylpiperazin-1-yl)acetamide]: “* (0<Y<=25%)” and less than 100 nM.
The matching figures for `CCc1cc(N2C(=S)N(c3cnc(C#N)c(C(F)(F)F)c3)C(=O)C2(C)C)ccc1OCCN1CCN(CC(=O)Nc2cc(F)cc(NC3CCC(=O)NC3=O)c2)[C@H](C)C1` (stereo partly drawn) [Example 75, 2-((R)-4-(2-(4-(3-(6-cyano-5-(trifluoromethyl)pyridin-3-yl)-5,5-dimethyl-4-oxo-2-thioxoimidazolidin-1-yl)-2-ethylphenoxy)ethyl)-2-methylpiperazin-1-yl)-N-(3-(2,6-dioxopiperidin-3-ylamino)-5-fluorophenyl)acetamide]: “* (0<Y<=25%)” and less than 100 nM.
For `CCc1cc(N2C(=S)N(c3cnc(C#N)c(C(F)(F)F)c3)C(=O)C2(C)C)ccc1OCCN1CCN(CC(=O)Nc2cc(NC3CCC(=O)NC3=O)ccc2F)[C@H](C)C1` (stereo partly drawn) [Example 76, 2-((R)-4-(2-(4-(3-(6-cyano-5-(trifluoromethyl)pyridin-3-yl)-5,5-dimethyl-4-oxo-2-thioxoimidazolidin-1-yl)-2-ethylphenoxy)ethyl)-2-methylpiperazin-1-yl)-N-(5-(2,6-dioxopiperidin-3-ylamino)-2-fluorophenyl)acetamide], the “Y (AR degradation efficiency, % of DMSO control)” value is on record as “* (0<Y<=25%)” and the DC50 was less than 100 nM.
